Test system: DNA repair protein genes
Experiment: DNA chip mRNA expression in yeast, DNA repair protein genes (Table 3)
Assay type: cell-based, Saccharomyces cerevisiae S288C
Settings: incubated two hours, concentrations as in the 1st table
Description: Yeast (Saccharomyces cerevisiae S288C (α SUC2mal mel gap2 CUP1)) were incubated at 25° C. on YPD medium (yeast extract 1%, polypepton 2%, glucose 2%). One of toxic chemical substances was added to the cells at logarithmic growth phase, and the cells were further incubated for two hours. Cells were cultured without any chemical substance in the same condition, and were used as control. Concentrations of the chemical substances were defined to inhibit the growth of the yeast but not lead to death.
After completion of the incubation, the culture was centrifuged to collect the cells. To the cells, sodium acetate buffer (50 mM sodium acetate, 10 mM EDTA, 1% SDS) was added, and the mixture was shaken at 65° C. for five minutes, followed by returning to room temperature, and obtaining the supernatant, of which the procedures were repeated two times. To the supernatant, ½ amount of a solution of phenol/chloroform was added, and the mixture was centrifuged to give a supernatant, which was added with an equal amount of chloroform, and the mixture was centrifuged to give a supernatant. To the supernatant, an equal amount of isopropanol containing 0.3 M sodium acetate was added, and the mixture was allowed to stand at room temperature for 30 minutes, after which the mixture was centrifuged to give a sediment of the whole RNAs. Seventy % ethanol was added to the sediment, and the mixture was again centrifuged to give a sediment, which was then dried and dissolved in water. mRNA was isolated from the whole RNAs as followings. In view of the fact that a poly A chain is attached to the 3′ terminus of mRNA, a polynucleotide having a poly T structure which was immobilized on the surface of latex beads was used to trap the mRNA, and then the mRNA was washed and eluted with spine column (Oligotex-dT30<Super>mRNA Purification Kit, Takara). Reverse transcription of the mRNA was conducted with a reverse transcriptase (Super Script II Reverse Transcriptase; catalogue No. 18064-014, GibcoBRL) using fluorescence-labeled nucleotides to give cDNAs that were introduced with Cy3-dUTP or Cy5-dUTP during the reverse transcription.
The labeled cDNAs were dissolved in TE buffer (10mM Tris-HCl/1 mM EDTA, pH8.0), and the solution was dropped on the DNA chip containing the whole genes of yeast (DNA Chip Research Inc. Japan) so that the cDNAs were hybridized on the DNA chip at 65° C. for over 12 hours. The fluoresces intensity of the DNA chip was read with a scanner, and the ratio relative to the fluorescence intensity resulting from the absence of chemical substance was estimated as the following, which is shown in Tables 1 to 9: […]

With `[Cl][Pb][Cl]` [(4), PbCl2] the “The level of expressed mRNA in the presence of chemical substance/The level of expressed mRNA in the absence of chemical substance” value (yeast gene YAL015C) was 1.9, the “The level of expressed mRNA in the presence of chemical substance/The level of expressed mRNA in the absence of chemical substance” value (yeast gene YAR007C) was 0.5 and the “The level of expressed mRNA in the presence of chemical substance/The level of expressed mRNA in the absence of chemical substance” value (yeast gene YBL019W) was 1.2. For the same molecule, the “The level of expressed mRNA in the presence of chemical substance/The level of expressed mRNA in the absence of chemical substance” value (yeast gene YBR073W) was 0.7, the “The level of expressed mRNA in the presence of chemical substance/The level of expressed mRNA in the absence of chemical substance” value (yeast gene YBR272C) was 1.0 and the “The level of expressed mRNA in the presence of chemical substance/The level of expressed mRNA in the absence of chemical substance” value (yeast gene YCR014C) was 0.6. For the same molecule, the “The level of expressed mRNA in the presence of chemical substance/The level of expressed mRNA in the absence of chemical substance” value (yeast gene YDL017W) was 1.3, the “The level of expressed mRNA in the presence of chemical substance/The level of expressed mRNA in the absence of chemical substance” value (yeast gene YDL059C) was 1.7 and the “The level of expressed mRNA in the presence of chemical substance/The level of expressed mRNA in the absence of chemical substance” value (yeast gene YDL200C) was 1.8. For the same molecule, the “The level of expressed mRNA in the presence of chemical substance/The level of expressed mRNA in the absence of chemical substance” value (yeast gene YDR054C) was 1.4, the “The level of expressed mRNA in the presence of chemical substance/The level of expressed mRNA in the absence of chemical substance” value (yeast gene YDR369C) was 1.1 and the “The level of expressed mRNA in the presence of chemical substance/The level of expressed mRNA in the absence of chemical substance” value (yeast gene YEL019C) was 0.7. For the same molecule, the “The level of expressed mRNA in the presence of chemical substance/The level of expressed mRNA in the absence of chemical substance” value (yeast gene YEL037C) was 1.0, the “The level of expressed mRNA in the presence of chemical substance/The level of expressed mRNA in the absence of chemical substance” value (yeast gene YER162C) was 1.1 and the “The level of expressed mRNA in the presence of chemical substance/The level of expressed mRNA in the absence of chemical substance” value (yeast gene YFL014W) was 11.0. The “The level of expressed mRNA in the presence of chemical substance/The level of expressed mRNA in the absence of chemical substance” value (yeast gene YGL058W) was 0.7, the “The level of expressed mRNA in the presence of chemical substance/The level of expressed mRNA in the absence of chemical substance” value (yeast gene YGL091C) was 1.7 and the “The level of expressed mRNA in the presence of chemical substance/The level of expressed mRNA in the absence of chemical substance” value (yeast gene YGL127C) was 1.7. For the same molecule, the “The level of expressed mRNA in the presence of chemical substance/The level of expressed mRNA in the absence of chemical substance” value (yeast gene YGL163C) was 4.3, the “The level of expressed mRNA in the presence of chemical substance/The level of expressed mRNA in the absence of chemical substance” value (yeast gene YGL249W) was 0.8 and the “The level of expressed mRNA in the presence of chemical substance/The level of expressed mRNA in the absence of chemical substance” value (yeast gene YGR180C) was 1.0. For the same molecule, the “The level of expressed mRNA in the presence of chemical substance/The level of expressed mRNA in the absence of chemical substance” value (yeast gene YGR231C) was 1.0, the “The level of expressed mRNA in the presence of chemical substance/The level of expressed mRNA in the absence of chemical substance” value (yeast gene YGR258C) was 0.7 and the “The level of expressed mRNA in the presence of chemical substance/The level of expressed mRNA in the absence of chemical substance” value (yeast gene YHR164C) was 0.7. For the same molecule, the “The level of expressed mRNA in the presence of chemical substance/The level of expressed mRNA in the absence of chemical substance” value (yeast gene YIL036W) was 1.8, the “The level of expressed mRNA in the presence of chemical substance/The level of expressed mRNA in the absence of chemical substance” value (yeast gene YIL072W) was 2.6 and the “The level of expressed mRNA in the presence of chemical substance/The level of expressed mRNA in the absence of chemical substance” value (yeast gene YIL143C) was 0.9. The “The level of expressed mRNA in the presence of chemical substance/The level of expressed mRNA in the absence of chemical substance” value (yeast gene YIL153W) was 2.9, the “The level of expressed mRNA in the presence of chemical substance/The level of expressed mRNA in the absence of chemical substance” value (yeast gene YIR002C) was 0.6 and the “The level of expressed mRNA in the presence of chemical substance/The level of expressed mRNA in the absence of chemical substance” value (yeast gene YJL026W) was 1.0. For the same molecule, the “The level of expressed mRNA in the presence of chemical substance/The level of expressed mRNA in the absence of chemical substance” value (yeast gene YJR046W) was 1.5, the “The level of expressed mRNA in the presence of chemical substance/The level of expressed mRNA in the absence of chemical substance” value (yeast gene YJR052W) was 1.0 and the “The level of expressed mRNA in the presence of chemical substance/The level of expressed mRNA in the absence of chemical substance” value (yeast gene YKL145W) was 1.0. For the same molecule, the “The level of expressed mRNA in the presence of chemical substance/The level of expressed mRNA in the absence of chemical substance” value (yeast gene YLR103C) was 0.4, the “The level of expressed mRNA in the presence of chemical substance/The level of expressed mRNA in the absence of chemical substance” value (yeast gene YLR233C) was 2.0 and the “The level of expressed mRNA in the presence of chemical substance/The level of expressed mRNA in the absence of chemical substance” value (yeast gene YLR288C) was 1.8. For the same molecule, the “The level of expressed mRNA in the presence of chemical substance/The level of expressed mRNA in the absence of chemical substance” value (yeast gene YML032C) was 0.7, the “The level of expressed mRNA in the presence of chemical substance/The level of expressed mRNA in the absence of chemical substance” value (yeast gene YML058W) was 1.9 and the “The level of expressed mRNA in the presence of chemical substance/The level of expressed mRNA in the absence of chemical substance” value (yeast gene YMR035W) was 1.7. For the same molecule, the “The level of expressed mRNA in the presence of chemical substance/The level of expressed mRNA in the absence of chemical substance” value (yeast gene YMR072W) was 1.0, the “The level of expressed mRNA in the presence of chemical substance/The level of expressed mRNA in the absence of chemical substance” value (yeast gene YMR096W) was 0.8 and the “The level of expressed mRNA in the presence of chemical substance/The level of expressed mRNA in the absence of chemical substance” value (yeast gene YMR284W) was 2.0. For the same molecule, the “The level of expressed mRNA in the presence of chemical substance/The level of expressed mRNA in the absence of chemical substance” value (yeast gene YNL213C) was 1.5, the “The level of expressed mRNA in the presence of chemical substance/The level of expressed mRNA in the absence of chemical substance” value (yeast gene YNL250W) was 1.2 and the “The level of expressed mRNA in the presence of chemical substance/The level of expressed mRNA in the absence of chemical substance” value (yeast gene YNL261W) was 1.3. For the same molecule, the “The level of expressed mRNA in the presence of chemical substance/The level of expressed mRNA in the absence of chemical substance” value (yeast gene YNL312W) was 0.7, the “The level of expressed mRNA in the presence of chemical substance/The level of expressed mRNA in the absence of chemical substance” value (yeast gene YOL043C) was 1.7 and the “The level of expressed mRNA in the presence of chemical substance/The level of expressed mRNA in the absence of chemical substance” value (yeast gene YOR005C) was 0.8. For the same molecule, the “The level of expressed mRNA in the presence of chemical substance/The level of expressed mRNA in the absence of chemical substance” value (yeast gene YOR386W) was 1.5, the “The level of expressed mRNA in the presence of chemical substance/The level of expressed mRNA in the absence of chemical substance” value (yeast gene YPL022W) was 1.2 and the “The level of expressed mRNA in the presence of chemical substance/The level of expressed mRNA in the absence of chemical substance” value (yeast gene YPL164C) was 1.0. The “The level of expressed mRNA in the presence of chemical substance/The level of expressed mRNA in the absence of chemical substance” value (yeast gene YPL194W) was 1.1 and the “The level of expressed mRNA in the presence of chemical substance/The level of expressed mRNA in the absence of chemical substance” value (yeast gene YPR025C) was 0.6.

From patent US8192962B2, “Processes for detecting toxic substances” (Daikin Industries, Ltd., priority 2001, dated 2012)
